Measured values from ChEMBL document CHEMBL1128983, “Synthesis and biological activity of novel sialyl-lewisX conjugates” (Bioorg Med Chem Lett, 1996).

These molecules were tested against T1, E-selectin (Homo sapiens, UniProt P16581) (assay: Compound was tested for inhibition of HL60 cell adhesion to recombinant Selectin E IgG fusion protein obtained from transfected COS cells).
T1 sequence (P16581 whole entry): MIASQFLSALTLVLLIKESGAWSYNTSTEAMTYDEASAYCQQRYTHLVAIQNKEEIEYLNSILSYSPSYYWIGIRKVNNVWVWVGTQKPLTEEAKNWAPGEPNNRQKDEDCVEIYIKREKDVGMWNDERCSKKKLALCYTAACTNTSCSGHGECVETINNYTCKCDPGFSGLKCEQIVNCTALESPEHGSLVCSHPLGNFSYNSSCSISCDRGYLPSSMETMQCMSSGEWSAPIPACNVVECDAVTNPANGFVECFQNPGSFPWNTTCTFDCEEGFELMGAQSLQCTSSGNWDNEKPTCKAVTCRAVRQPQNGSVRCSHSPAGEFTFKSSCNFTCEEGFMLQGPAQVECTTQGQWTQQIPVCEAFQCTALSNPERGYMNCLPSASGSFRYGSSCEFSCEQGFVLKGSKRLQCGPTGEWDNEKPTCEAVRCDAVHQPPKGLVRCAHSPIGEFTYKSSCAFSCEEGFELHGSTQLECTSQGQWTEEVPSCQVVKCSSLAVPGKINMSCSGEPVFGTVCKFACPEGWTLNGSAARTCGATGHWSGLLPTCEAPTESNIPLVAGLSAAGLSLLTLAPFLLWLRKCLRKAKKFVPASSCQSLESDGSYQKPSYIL
Type: functional, cell-based, HL-60
For `CC(=O)N[C@H]1[C@H]([C@H](O)[C@H](O)CO)O[C@@](O[C@@H]2[C@H](O)[C@H](O[C@H]3[C@H](O[C@@H]4O[C@@H](C)[C@@H](O)[C@H](O)[C@@H]4O)[C@H](NC(C)=O)[C@H](NC(=O)[C@H](C)NC(=O)[C@H](CC(=O)O)NC(=O)CNC(=O)[C@@H](N)CCCN=C(N)N)O[C@H]3CO)O[C@@H](CO)[C@@H]2O)(C(=O)O)C[C@H]1O`, the IC50 was greater than 1000 µM. `CC(=O)N[C@@H]1[C@H](OCCCCCCN)O[C@@H](CO)[C@@H](O[C@@H]2O[C@@H](CO)[C@H](O)[C@H](O[C@]3(C(=O)O)C[C@@H](O)[C@@H](NC(C)=O)[C@H]([C@H](O)[C@H](O)CO)O3)[C@@H]2O)[C@@H]1O[C@@H]1O[C@@H](C)[C@@H](O)[C@H](O)[C@@H]1O` was tested, and the IC50 was 1000 µM. With `CC(=O)N[C@@H]1[C@H](OCCCCCCNC(=O)CCCC[C@@H]2SC[C@@H]3NC(=O)N[C@@H]32)O[C@@H](CO)[C@@H](O[C@@H]2O[C@@H](CO)[C@H](O)[C@H](O[C@]3(C(=O)O)C[C@@H](O)[C@@H](NC(C)=O)[C@H]([C@H](O)[C@H](O)CO)O3)[C@@H]2O)[C@@H]1O[C@@H]1O[C@@H](C)[C@@H](O)[C@H](O)[C@@H]1O` the IC50 was 590 µM. `CC(=O)N[C@@H]1[C@H](OCCCCCC/N=C(S)/N=C2\C=CC(=C3c4ccc(O)cc4Oc4cc(O)ccc43)C(C(=O)O)=C2)O[C@@H](CO)[C@@H](O[C@@H]2O[C@@H](CO)[C@H](O)[C@H](O[C@]3(C(=O)O)C[C@@H](O)[C@@H](NC(C)=O)[C@H]([C@H](O)[C@H](O)CO)O3)[C@@H]2O)[C@@H]1O[C@@H]1O[C@@H](C)[C@@H](O)[C@H](O)[C@@H]1O` showed an IC50 of 650 µM. Molecule `CC(=O)N[C@@H]1[C@H](OCCCCCCNC(=O)[C@H]2CC[C@H](CN3C(=O)C=CC3=O)CC2)O[C@@H](CO)[C@@H](O[C@@H]2O[C@@H](CO)[C@H](O)[C@H](O[C@]3(C(=O)O)C[C@@H](O)[C@@H](NC(C)=O)[C@H]([C@H](O)[C@H](O)CO)O3)[C@@H]2O)[C@@H]1O[C@@H]1O[C@@H](C)[C@@H](O)[C@H](O)[C@@H]1O` has an IC50 of 280 µM. `CC(=O)N[C@H]1[C@H]([C@H](O)[C@H](O)CO)O[C@@](O[C@@H]2[C@H](O)[C@H](O[C@H]3[C@H](O[C@@H]4O[C@@H](C)[C@@H](O)[C@H](O)[C@@H]4O)[C@H](NC(C)=O)[C@H](NC(=O)[C@H](C)NC(=O)[C@@H]4CCCN4C(=O)CNC(=O)CNC(=O)[C@@H]4CCCN4C(=O)CN)O[C@H]3CO)O[C@@H](CO)[C@@H]2O)(C(=O)O)C[C@H]1O` gave an IC50 of 5000 µM. Work on `CC(=O)N[C@@H]1[C@H](OCCCCCCNC(=O)CCC(=O)O)O[C@@H](CO)[C@@H](O[C@@H]2O[C@@H](CO)[C@H](O)[C@H](O[C@]3(C(=O)O)C[C@@H](O)[C@@H](NC(C)=O)[C@H]([C@H](O)[C@H](O)CO)O3)[C@@H]2O)[C@@H]1O[C@@H]1O[C@@H](C)[C@@H](O)[C@H](O)[C@@H]1O` yielded an IC50 of 1150 µM.
